Assay results reported in US20070293572A1, “Anti-Fatigue Composition” (priority 2004, published 2007).

Tested on: Sprague-Dawley male rats
Test: Treadmill Test using Young Rat (1)
Format: in vivo
Settings: oral 100 mg/kg; for Extension of maximum running time (result in words): before vs three hours after administration; for Extension of maximum running time: maximum running time three hours after vs before administration, 7 to 10 week old rats, n=20
Procedure: Treadmill Test using Young Rat (1)
Using Sprague-Dawley malerats (7 to 10 week old, n=20) anti-fatigue effects brought about by reduced coenzyme Q10 alone (about 2% of oxidized coenzyme Q10 included), carnitine alone, and combination use of reduced coenzyme Q10 and carnitine were evaluated with a treadmill. In the test, rats were run at a speed of 10 m/min using a treadmill apparatus (model NK-73-4 made by Natume Seisakusho Co., Ltd.), and the speed was increased stepwise, by 5 m/min every 3 minutes, and the time when the rats became unable to run (maximum running time) was measured.
As a substance to be tested, a 0.5% sodium carboxymethylcellulose (CMC-Na) aqueous solution of reduced coenzyme Q10 (about 2% of oxidized coenzyme Q10 included) or carnitine (reduced coenzyme Q10 or carnitine/CMC-Na=10 mg/ml) was prepared and the solution was orally administered to rats at a dose of 100 mg/kg. Rats were divided into four groups of a solvent administered group, reduced coenzyme Q10 only administered group, a carnitine only administered group, and a reduced coenzyme Q10 and carnitine combined group. The maximum running time was measured before and three hours after the administration and the time extended from the maximum running time was calculated. A 0.5% CMC-Na aqueous solution was administered to the control group.

C[N+](C)(C)CC(O)CC(=O)[O-] (stereo not shown) [Carnitine, 4-trimethylamino-3-hydroxybutyric acid]
Extension of maximum running time (result in words): no extension of the maximum running time
Extension of maximum running time: −0 ± 151 S

COc1c(O)c(C)c(C/C=C(\C)CC/C=C(\C)CC/C=C(\C)CC/C=C(\C)CC/C=C(\C)CC/C=C(\C)CC/C=C(\C)CC/C=C(\C)CC/C=C(\C)CCC=C(C)C)c(O)c1OC [Reduced coenzyme Q10, reduced coenzyme Q10]
Extension of maximum running time (result in words): no extension of the maximum running time
Extension of maximum running time: −22 ± 71 S
